In ChEMBL document CHEMBL5500356, “Design, synthesis, and biological evaluation of novel benzimidazole derivatives as anti-cervical cancer agents through PI3K/Akt/mTOR pathway and tubulin inhibition” (Eur J Med Chem, 2024):
Active and inactive are the calls of the source. The rule behind the calls is not given here.

Tests used:
[1] = Acute toxicity in AB-wild type zebrafish embryo assessed as mortalities at 100 uM measured after 96 hrs; set-up: species or system Danio rerio; conditions: in vivo, read-out: Activity
SiHa [2] = test: Induction of apoptosis in human SiHa cells assessed as early apoptotic cells at 8 uM incubated for 24 hr by flow cytometry based annexin V-FITC/PI double-staining analysis (reference value: 2.95%); type: functional
SiHa [3] = test: Induction of cell cycle arrest in human SiHa cells assessed as accumulation cells at G0/G1 phase at 4 uM measured after 24 hrs by flow cytometry (reference value: 80.45%); type: functional
[4] = Acute toxicity in AB-wild type zebrafish embryo assessed as mortalities at 400 uM measured after 96 hrs; set-up: species or system Danio rerio; conditions: in vivo, read-out: Activity
SiHa [5] = test: Induction of cell cycle arrest in human SiHa cells assessed as accumulation cells at G2/M phase at 4 uM measured after 24 hrs by flow cytometry (reference value: 5.24%); type: functional
SiHa [6] = test: Induction of cell cycle arrest in human SiHa cells assessed as accumulation cells at G2/M phase at 16 uM measured after 24 hrs by flow cytometry (reference value: 5.24%); type: functional
[7] = Acute toxicity in AB-wild type zebrafish embryo assessed as malformation rate at 100 uM measured after 96 hrs; set-up: species or system Danio rerio; conditions: in vivo
SiHa [8] = test: Induction of apoptosis in human SiHa cells assessed as late apoptotic cells at 4 uM incubated for 24 hr by flow cytometry based annexin V-FITC/PI double-staining analysis (reference value: 8.67%); type: functional
SiHa [9] = test: Inhibition of PI3K phosphorylation in human SiHa cells at 4 to 16 uM incubated for 24 hrs by Western blot analysis; type: cell-based; conditions: dose 4-16 µM
SiHa [10] = test: Induction of apoptosis in human SiHa cells assessed as late apoptotic cells at 16 uM incubated for 24 hr by flow cytometry based annexin V-FITC/PI double-staining analysis (reference value: 8.67%); type: functional
SiHa [11] = test: Effect on Akt protein expression in human SiHa cells at 4 to 16 uM incubated for 24 hrs by Western blot analysis; type: functional, cell-based; conditions: dose 4-16 µM
[12] = Acute toxicity in AB-wild type zebrafish embryo assessed as malformation rate at 50 uM measured after 96 hrs; set-up: species or system Danio rerio; conditions: in vivo
Ca-Ski = test: Antiproliferative activity against human Ca-Ski cells assessed as cell viability incubated for 48 hrs by MTT assay; type: functional, cell-based
SiHa [13] = test: Induction of cell cycle arrest in human SiHa cells assessed as accumulation cells at G0/G1 phase at 16 uM measured after 24 hrs by flow cytometry (reference value: 80.45%); type: functional
Tubulin (Homo sapiens) [14] = biological target: T1, Tubulin (Homo sapiens) (UniProt P68371+Q9H4B7+P0DPH7+P68366+Q13509+Q71U36+P04350+Q3ZCM7+P07437+P68363+Q9BQE3+Q6PEY2+Q13885+Q9BVA1+Q9BUF5); test: Inhibition of tubulin polymerization in human SiHa cells incubated for 24 hrs by DAPI fluorescence staining assay; type: cell-based; conditions: dose 4-16 µM
SiHa [15] = test: Induction of cell cycle arrest in human SiHa cells assessed as accumulation cells at G2/M phase at 8 uM measured after 24 hrs by flow cytometry (reference value: 5.24%); type: functional
SiHa [16] = test: Induction of apoptosis in human SiHa cells assessed as late apoptotic cells at 8 uM incubated for 24 hr by flow cytometry based annexin V-FITC/PI double-staining analysis (reference value: 8.67%); type: functional
[17] = Acute toxicity in AB-wild type zebrafish embryo assessed as mortalities at 50 uM measured after 96 hrs; set-up: species or system Danio rerio; conditions: in vivo, read-out: Activity
HeLa = test: Antiproliferative activity against human HeLa cells assessed as cell viability incubated for 48 hrs by MTT assay; type: functional, cell-based
SiHa [18] = test: Induction of apoptosis in human SiHa cells assessed as early apoptotic cells at 4 uM incubated for 24 hr by flow cytometry based annexin V-FITC/PI double-staining analysis (reference value: 2.95%); type: functional
[19] = Cytotoxicity against human L02 cells assessed as cell viability incubated for 48 hrs by MTT assay; type: toxicity, cell-based
Tubulin (Homo sapiens) [20] = biological target: T1, Tubulin (Homo sapiens); test: Inhibition of tubulin formation in human SiHa cells incubated for 24 hrs by Western blot analysis; type: cell-based
SiHa [21] = test: Induction of cell cycle arrest in human SiHa cells assessed as accumulation cells at S phase at 8 uM measured after 24 hrs by flow cytometry (reference value: 14.31%); type: functional
SiHa [22] = test: Antiproliferative activity against human SiHa cells assessed as cell viability incubated for 48 hrs by MTT assay; type: functional, cell-based
SiHa [23] = test: Induction of cell cycle arrest in human SiHa cells assessed as accumulation cells at S phase at 16 uM measured after 24 hrs by flow cytometry (reference value: 14.31%); type: functional
[24] = Cytotoxicity against human HEK293T cells assessed as cell viability incubated for 48 hrs by MTT assay; type: toxicity, cell-based, HEK-293T
SiHa [25] = test: Induction of cell cycle arrest in human SiHa cells assessed as accumulation cells at G0/G1 phase at 8 uM measured after 24 hrs by flow cytometry (reference value: 80.45%); type: functional
[26] = Acute toxicity in AB-wild type zebrafish embryo assessed as malformation rate at 200 uM measured after 96 hrs; set-up: species or system Danio rerio; conditions: in vivo
[27] = biological target: RAC-alpha serine/threonine-protein kinase (Homo sapiens) (UniProt P31749); test: Inhibition of Akt phosphorylation in human SiHa cells at 4 to 16 uM incubated for 24 hrs by Western blot analysis; type: cell-based; conditions: dose 4-16 µM
[28] = biological target: Serine/threonine-protein kinase mTOR (Homo sapiens) (UniProt P42345); test: Inhibition of mTOR phosphorylation in human SiHa cells at 4 to 16 uM incubated for 24 hrs by Western blot analysis; type: cell-based; conditions: dose 4-16 µM
[29] = Acute toxicity in AB-wild type zebrafish embryo assessed as malformation rate at 12.5 uM measured after 96 hrs; set-up: species or system Danio rerio; conditions: in vivo
SiHa [30] = test: Induction of apoptosis in human SiHa cells assessed as early apoptotic cells at 16 uM incubated for 24 hr by flow cytometry based annexin V-FITC/PI double-staining analysis (reference value: 2.95%); type: functional
[31] = Acute toxicity in AB-wild type zebrafish embryo assessed as malformation rate at 25 uM measured after 96 hrs; set-up: species or system Danio rerio; conditions: in vivo
[32] = Acute toxicity in AB-wild type zebrafish embryo assessed as malformation rate at 400 uM measured after 96 hrs; set-up: species or system Danio rerio; conditions: in vivo
SiHa [33] = test: Induction of cell cycle arrest in human SiHa cells assessed as accumulation cells at S phase at 4 uM measured after 24 hrs by flow cytometry (reference value: 14.31%); type: functional
[34] = Acute toxicity in AB-wild type zebrafish embryo assessed as mortalities at 25 uM measured after 96 hrs; set-up: species or system Danio rerio; conditions: in vivo, read-out: Activity
[35] = Acute toxicity in AB-wild type zebrafish embryo assessed as mortalities at 200 uM measured after 96 hrs; set-up: species or system Danio rerio; conditions: in vivo, read-out: Activity
[36] = Acute toxicity in AB-wild type zebrafish embryo assessed as mortalities at 12.5 uM measured after 96 hrs; set-up: species or system Danio rerio; conditions: in vivo, read-out: Activity
SiHa [37] = test: Effect on mTOR protein expression in human SiHa cells at 4 to 16 uM incubated for 24 hrs by Western blot analysis; type: functional, cell-based; conditions: dose 4-16 µM
SiHa [38] = test: Effect on PI3K protein expression in human SiHa cells at 4 to 16 uM incubated for 24 hrs by Western blot analysis; type: functional, cell-based; conditions: dose 4-16 µM

RAC-alpha serine/threonine-protein kinase (Homo sapiens), sequence (P31749 whole entry): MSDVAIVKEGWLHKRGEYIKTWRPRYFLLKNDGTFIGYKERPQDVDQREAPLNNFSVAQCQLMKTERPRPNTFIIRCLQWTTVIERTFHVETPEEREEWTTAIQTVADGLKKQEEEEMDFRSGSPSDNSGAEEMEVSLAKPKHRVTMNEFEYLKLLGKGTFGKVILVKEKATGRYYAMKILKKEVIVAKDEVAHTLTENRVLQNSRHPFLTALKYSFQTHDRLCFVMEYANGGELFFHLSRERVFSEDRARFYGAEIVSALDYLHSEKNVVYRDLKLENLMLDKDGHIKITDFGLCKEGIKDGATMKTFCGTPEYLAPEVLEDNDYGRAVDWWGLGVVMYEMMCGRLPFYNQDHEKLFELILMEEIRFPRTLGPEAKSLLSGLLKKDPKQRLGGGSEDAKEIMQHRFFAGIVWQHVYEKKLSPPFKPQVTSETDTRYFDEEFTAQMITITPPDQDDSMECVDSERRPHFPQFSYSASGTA

SMILES: COc1cc(-c2nc3cc(N4CCN(C)CC4)c(C#Cc4ccccc4F)cc3[nH]2)cc(OC)c1OC
- mortality at 96 h, 100 µM [1]: 0%
- Activity (SiHa [2]): 66.56%
- Activity (SiHa [3]): 82.4%
- mortality at 96 h, 400 µM [4]: 0%
- Activity (SiHa [5]): 7.26%
- Activity (SiHa [6]): 28.37%
- Activity [7]: 0%
- Activity (SiHa [8]): 8.49%
- inhibition (SiHa [9]): Active
- Activity (SiHa [10]): 15.86%
- Activity (SiHa [11]): inactive
- Activity [12]: 0%
- IC50 (Ca-Ski): 7.24 µM
- Activity (SiHa [13]): 55.29%
- inhibition (Tubulin (Homo sapiens) [14]): Dose-Dependent Effect
- Activity (SiHa [15]): 8.92%
- Activity (SiHa [16]): 16.43%
- mortality at 96 h, 50 µM [17]: 0%
- IC50 (HeLa): 5.03 µM
- Activity (SiHa [18]): 8.55%
- IC50 at 48 h [19]: 21.1 µM
- inhibition (Tubulin (Homo sapiens) [20]): Dose-Dependent Effect
- Activity (SiHa [21]): 8.71%
- IC50 (SiHa [22]): 3.38 µM
- Activity (SiHa [23]): 16.33%
- IC50 at 48 h [24]: 24 µM
- Activity (SiHa [25]): 82.37%
- Activity [26]: 0%
- inhibition [27]: Active
- inhibition [28]: Active
- Activity [29]: 0%
- Activity (SiHa [30]): 82.7%
- Activity [31]: 0%
- Activity [32]: 0%
- Activity (SiHa [33]): 9.89%
- mortality at 96 h, 25 µM [34]: 0%
- mortality at 96 h, 200 µM [35]: 0%
- mortality at 96 h, 12.5 µM [36]: 0%
- Activity (SiHa [37]): inactive
- Activity (SiHa [38]): inactive
